The values below come from ChEMBL document CHEMBL5724914, “Linking interpersonal differences in gut microbiota composition and drug biotransformation activity” (2024).

The nature of series [1]: The drug is tested on Z-027 corresponding to metagenome with ENA study accession number: PRJEB37062 and ENA sample accession number: ERS12561826 for biotransformation under anaerobic condition. The drug concentrations were measured over 9 timepoints collected between 0 and 24 hours of incubation by liquid-chromatography-coupled mass spectrometry (LC–MS). The conditions noted are these: 2 µM.

The nature of series [2]: The drug is tested on Z-016 corresponding to mouse gut metagenome with ENA study accession number: PRJEB37062 and ENA sample accession number: ERS12561815 for biotransformation under anaerobic condition. The drug concentrations were measured over 9 timepoints collected between 0 and 24 hours of incubation by liquid-chromatography-coupled mass spectrometry (LC–MS). The note with it: 2 µM.

For series [3] the following is noted: human gut metagenome, 24 h, 2 µM.
The conditions of series [4]: human gut metagenome, 24 h, 2 µM. The source holds these as a separate data set.
For series [5] the following is noted: human gut metagenome, 24 h, 2 µM. This is another data set of the same source.
A short description of series [6]: The drug is tested on WLS-220 corresponding to human gut metagenome with ENA study accession number: PRJEB37062 and ENA sample accession number: ERS12561769 for biotransformation under anaerobic condition. The drug concentrations were measured over 9 timepoints collected between 0 and 24 hours of incubation by liquid-chromatography-coupled mass spectrometry (LC–MS). The conditions noted are these: 2 µM.

A short description of series [7]: The drug is tested on Z-014 corresponding to rat gut metagenome with ENA study accession number: PRJEB37062 and ENA sample accession number: ERS12561814 for biotransformation under anaerobic condition. The drug concentrations were measured over 9 timepoints collected between 0 and 24 hours of incubation by liquid-chromatography-coupled mass spectrometry (LC–MS). The note with it: 2 µM.

Series [8] is described as follows: The drug is tested on Z-018 corresponding to pig gut metagenome with ENA study accession number: PRJEB37062 and ENA sample accession number: ERS12561817 for biotransformation under anaerobic condition. The drug concentrations were measured over 9 timepoints collected between 0 and 24 hours of incubation by liquid-chromatography-coupled mass spectrometry (LC–MS). The note with it: 2 µM.

For series [9] the following is noted: human gut metagenome, 24 h, 2 µM. The source holds these as a separate data set.
Series [10] in a line: The drug is tested on Z-004 corresponding to metagenome with ENA study accession number: PRJEB37062 and ENA sample accession number: ERS12561804 for biotransformation under anaerobic condition. The drug concentrations were measured over 9 timepoints collected between 0 and 24 hours of incubation by liquid-chromatography-coupled mass spectrometry (LC–MS). The note with it: 2 µM.

For series [11] the following is noted: human gut metagenome, 24 h, 2 µM. This is another data set of the same source.
Series [12] is described as follows: The drug is tested on Z-023 corresponding to metagenome with ENA study accession number: PRJEB37062 and ENA sample accession number: ERS12561822 for biotransformation under anaerobic condition. The drug concentrations were measured over 9 timepoints collected between 0 and 24 hours of incubation by liquid-chromatography-coupled mass spectrometry (LC–MS). The conditions noted are these: 2 µM.

The conditions of series [13]: human gut metagenome, 24 h, 2 µM. The source holds these as a separate data set.
The conditions of series [14]: human gut metagenome, 24 h, 2 µM. This is another data set of the same source.
The conditions of series [15]: human gut metagenome, 24 h, 2 µM. The source holds these as a separate data set.
Series [16] is described as follows: The drug is tested on Z-012 corresponding to metagenome with ENA study accession number: PRJEB37062 and ENA sample accession number: ERS12561812 for biotransformation under anaerobic condition. The drug concentrations were measured over 9 timepoints collected between 0 and 24 hours of incubation by liquid-chromatography-coupled mass spectrometry (LC–MS). The conditions noted are these: 2 µM.

For series [17] the following is noted: human gut metagenome, 24 h, 2 µM. This is another data set of the same source.
A short description of series [18]: The drug is tested on Z-019 corresponding to rat gut metagenome with ENA study accession number: PRJEB37062 and ENA sample accession number: ERS12561818 for biotransformation under anaerobic condition. The drug concentrations were measured over 9 timepoints collected between 0 and 24 hours of incubation by liquid-chromatography-coupled mass spectrometry (LC–MS). The note with it: 2 µM.

The nature of series [19]: The drug is tested on WLS-090 corresponding to human gut metagenome with ENA study accession number: PRJEB37062 and ENA sample accession number: ERS12561753 for biotransformation under anaerobic condition. The drug concentrations were measured over 9 timepoints collected between 0 and 24 hours of incubation by liquid-chromatography-coupled mass spectrometry (LC–MS). The note with it: 2 µM.

Series [20] is described as follows: The drug is tested on WLS-310 corresponding to human gut metagenome with ENA study accession number: PRJEB37062 and ENA sample accession number: ERS12561785 for biotransformation under anaerobic condition. The drug concentrations were measured over 9 timepoints collected between 0 and 24 hours of incubation by liquid-chromatography-coupled mass spectrometry (LC–MS). The conditions noted are these: 2 µM.
Also: call rule not given here.

Turning to `CC(C)c1c(CN(C)C(C)Cc2ccccc2)n(C)n(-c2ccccc2)c1=O` (stereo not given) [FAMPROFAZONE], the “Bacterial Biotransformation” value in series [1], in [2], in [3], in series [4], in series [5] and in series [6] was “Compound metabolized” in each case. Further, the “Bacterial Biotransformation” value in [7] was “Compound metabolized”; in [8] it was “Compound NOT metabolized”; in [9] it was “Compound metabolized”; in series [10] it was “Compound metabolized”; in series [11], “Compound metabolized”; in series [12] it was “Compound metabolized”. In addition, the “Bacterial Biotransformation” value is given as “Compound metabolized” in series [13]; “Compound metabolized” in series [14]; “Compound metabolized” in series [15]; “Compound metabolized” in [16]; “Compound metabolized” in series [17]; “Compound NOT metabolized” in series [18]. The “Bacterial Biotransformation” value in [19] and in series [20] was “Compound metabolized” in each case.

As to `CN1CCC(=C2c3ccccc3CC(=O)c3sccc32)CC1.O=C(O)/C=C/C(=O)O` [KETOTIFEN FUMARATE], the “Bacterial Biotransformation” value is reported as “Compound NOT metabolized” in [1]; “Compound NOT metabolized” in series [2]; “Compound NOT metabolized” in series [3]; “Compound NOT metabolized” in [4]; “Compound metabolized” in series [5]; “Compound metabolized” in series [6]. Further, the “Bacterial Biotransformation” value in series [7], in series [8], in series [9], in series [10], in series [11] and in [12] was “Compound NOT metabolized” each time. The “Bacterial Biotransformation” value is on record as “Compound NOT metabolized” in series [13]; “Compound NOT metabolized” in series [14]; “Compound NOT metabolized” in series [15]; “Compound NOT metabolized” in series [16]; “Compound metabolized” in series [17]; “Compound NOT metabolized” in [18]. For the same compound, the “Bacterial Biotransformation” value in series [19] and in [20] was “Compound metabolized” throughout.

Turning to `C=CC[C@@H]1/C=C(\C)C[C@H](C)C[C@H](OC)[C@H]2O[C@@](O)(C(=O)C(=O)N3CCCC[C@H]3C(=O)O[C@H](/C(C)=C/[C@@H]3CC[C@@H](O)[C@H](OC)C3)[C@H](C)[C@@H](O)CC1=O)[C@H](C)C[C@@H]2OC.O` [TACROLIMUS], the “Bacterial Biotransformation” value in [1] is given as “Compound NOT metabolized”; in series [2] it was “Compound NOT metabolized”; in series [3], “Compound metabolized”; in series [4], “Compound metabolized”; in series [5] it was “Compound NOT metabolized”; in [6], “Compound metabolized”. Also, the “Bacterial Biotransformation” value in [7] is listed as “Compound NOT metabolized”; in [8], “Compound NOT metabolized”; in series [9] it was “Compound metabolized”; in [10] it was “Compound NOT metabolized”; in series [11] it was “Compound NOT metabolized”; in series [12], “Compound NOT metabolized”. For the same compound, the “Bacterial Biotransformation” value in series [13] is reported as “Compound metabolized”; in series [14] it was “Compound metabolized”; in series [15], “Compound metabolized”; in series [16], “Compound NOT metabolized”; in [17], “Compound metabolized”; in series [18], “Compound NOT metabolized”. Also, the “Bacterial Biotransformation” value in series [19] and in series [20] was “Compound metabolized” in each case.

In the case of `C#C[C@]1(OC(C)=O)CC[C@H]2[C@@H]3CCC4=C/C(=N/O)CC[C@@H]4[C@H]3CC[C@@]21CC` [NORGESTIMATE], the “Bacterial Biotransformation” value in [1] is on record as “Compound NOT metabolized”; in [2], “Compound NOT metabolized”; in [3] it was “Compound metabolized”; in [4], “Compound metabolized”; in series [5], “Compound metabolized”; in series [6], “Compound metabolized”. The “Bacterial Biotransformation” value in [7] was “Compound NOT metabolized”; in series [8], “Compound NOT metabolized”; in series [9], “Compound NOT metabolized”; in series [10], “Compound NOT metabolized”; in [11], “Compound metabolized”; in series [12] it was “Compound NOT metabolized”. Further, the “Bacterial Biotransformation” value in series [13] was “Compound NOT metabolized”; in [14], “Compound metabolized”; in series [15], “Compound metabolized”; in [16] it was “Compound NOT metabolized”; in [17] it was “Compound metabolized”; in series [18], “Compound NOT metabolized”. Further, the “Bacterial Biotransformation” value in [19] and in series [20] was “Compound metabolized” in each case.

In the case of `CC[C@H](C)C(=O)O[C@H]1CCC=C2C=C[C@H](C)[C@H](CC[C@@H]3C[C@@H](O)CC(=O)O3)[C@H]21` [MEVASTATIN], the “Bacterial Biotransformation” value in [1] is reported as “Compound NOT metabolized”; in series [2], “Compound NOT metabolized”; in [3], “Compound NOT metabolized”; in [4], “Compound NOT metabolized”; in series [5], “Compound NOT metabolized”; in series [6], “Compound metabolized”. In addition, the “Bacterial Biotransformation” value in [7] was “Compound NOT metabolized”; in [8] it was “Compound metabolized”; in series [9] it was “Compound NOT metabolized”; in [10], “Compound NOT metabolized”; in series [11], “Compound NOT metabolized”; in [12], “Compound metabolized”. The “Bacterial Biotransformation” value in series [13] was “Compound NOT metabolized”; in series [14], “Compound NOT metabolized”; in series [15], “Compound NOT metabolized”; in series [16], “Compound NOT metabolized”; in series [17], “Compound metabolized”; in [18], “Compound NOT metabolized”. The “Bacterial Biotransformation” value in series [19] and in series [20] was “Compound metabolized” throughout.
